The values that follow come from patent publication US20050192245A1, “Medicinal composition for treating arteriosclerosis” (SANKYO COMPANY, LIMITED, priority 2002, published 2005).

For the assay, the system named is atherogenic lesions of the right femoral artery (arteriosclerosis). The assay is described as follows: Atherogenic lesions in cholesterol diet-loaded rabbits with Nylon thread-induced chronic endothelial damage (right femoral artery). As to conditions: oral, 8 weeks. The assay is classed as in vivo, male New Zealand White rabbits. As for the experimental part:
A test was conducted in which male New Zealand White rabbits (body weights: 1.0 to 1.5 kg) were loaded for 10 weeks with a cholesterol diet (0.5% cholesterol, 3% peanut oil and 3% coconut oil) in the amounts indicated below. The animals were fed 40 g for the first two weeks, 50 g for the next four weeks, and 60 g for the final four weeks. Two weeks after cholesterol diet loading, a Nylon thread was aseptically inserted from the right femoral artery to the vicinity of the diaphragm to induce chronic endothelial damage in the abdominal aorta and right femoral artery. The Nylon thread was immobilized for 8 weeks at the insertion site. Following surgery to insert the Nylon thread, the animals were grouped so that the average values of serum total cholesterol, triglycerides, platelet aggregation and body weight of each group were nearly equal, followed by oral administration of the ADP receptor antagonist and the ACAT inhibitor either alone or combined. After necrotomy of the animals 8 weeks after administration, the right femoral arteries were excised and the ratio of the surface area covered by atherogenic lesions was calculated. After exposing the right femoral artery (by 1 cm from the branch of the iliac artery), it was photographed with a digital camera (COOLPX990, Nikon) followed by measurement of the surface area of the lumen and the surface area covered by atherogenic lesions using an image analyzer, and calculation of the ratio of the surface area covered by atherogenic lesions relative to the surface area of the aorta lumen as a percentage. In addition, a section 1 cm from the branch of the iliac artery on the side of the femoral artery was cut out and after fixing in methanol-carnoy solution, was embedded in a paraffin block. After slicing into thin sections, the sections were immunostained using Elastica-Masson stain and anti-human α-actin antibody (1A4) followed by calculating the degree of medial intimal thickness and the smooth muscle cell occupancy rate using an image analyzer. In the table, Compound A represent 2-acetoxy-5-(α-cyclopropylcarbonyl-2-fluorobenzyl)-4,5,6,7-tetrahydrothieno[3,2-c]pyridine, and Compound B represents sulfate of N-(1-octyl-5-carboxymethyl-4,6-dimethylindolin-7-yl)-2,2-dimethylpropanamide.

Consider `CC(=O)Oc1cc2c(s1)CCN(C(C(=O)C1CC1)c1ccccc1F)C2` (stereo not drawn) [Compound A, 2-acetoxy-5-(α-cyclopropylcarbonyl-2-fluorobenzyl)-4,5,6,7-tetrahydrothieno[3,2-c]pyridine], for which, for the setting “Compound A 1 mg/kg”, the “Medial intimal thickness (%)” value stood at 275.4 ± 153.4% and the “Ratio of lesion surface area (%)” value was determined as 47.2 ± 14.2%. Also, the Smooth muscle cell occupancy rate in lesion at 1 mg/kg (Oryctolagus cuniculus, 1344 h, Compound A 1 mg/kg) amounted to 5.5 ± 1.5%.
Take `CCCCCCCCN1CCc2c(C)c(CC(=O)O)c(C)c(NC(=O)C(C)(C)C)c21.O=S(=O)(O)O` [Compound B, sulfate of N-(1-octyl-5-carboxymethyl-4,6-dimethylindolin-7-yl)-2,2-dimethylpropanamide]: where the note is “Compound B 3 mg/kg”, the “Medial intimal thickness (%)” value was found to be 60.0 ± 34.2 %, the “Ratio of lesion surface area (%)” value was determined as 40.6 ± 19.8 % and the “Smooth muscle cell occupancy rate (%)” value was found to be 25.6 ± 14.8 %.
